Laboratory results taken from US11660293B2, “Substituted 2-azabicyclo[3.1.1]heptane and 2-azabicyclo[3.2.1]octane derivatives as orexin receptor antagonists” (Chronos Therapeutics Limited, priority 2017, dated 2023).
Like-named read-outs stand apart in the source and are kept apart here.

How the values were obtained:
[1] = target: human Orexin type 2 receptors (Homo sapiens (Human), UniProt O43614); test: Scintillation Proximity Assay (SPA) binding assay, [3H]EMPA displacement, HEK-hOX2 membranes; conditions: for Ki: read-out: OX2 pKi (SPA binding) (converted)
[2] = target: human Orexin type 1 receptors (Homo sapiens (Human), UniProt O43613); test: Scintillation Proximity Assay (SPA) binding assay, [3H]SB-674042 displacement, CHO-hOX1 membranes; conditions: for Ki: read-out: OX1 pKi (SPA binding) (converted)
Chain of human Orexin type 1 receptors (O43613 whole entry): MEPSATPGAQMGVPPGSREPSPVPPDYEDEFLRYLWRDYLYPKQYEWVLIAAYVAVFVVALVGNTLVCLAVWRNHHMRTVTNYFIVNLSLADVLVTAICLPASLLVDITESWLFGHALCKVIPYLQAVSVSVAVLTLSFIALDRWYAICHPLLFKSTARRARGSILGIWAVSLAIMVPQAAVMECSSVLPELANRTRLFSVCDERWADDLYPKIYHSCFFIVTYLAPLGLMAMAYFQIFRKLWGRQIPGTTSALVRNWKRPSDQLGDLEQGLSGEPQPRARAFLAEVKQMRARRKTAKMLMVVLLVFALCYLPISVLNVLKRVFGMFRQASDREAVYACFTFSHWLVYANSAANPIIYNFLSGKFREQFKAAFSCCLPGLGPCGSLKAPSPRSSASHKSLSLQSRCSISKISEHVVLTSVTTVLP

Chain of human Orexin type 2 receptors (O43614 whole entry): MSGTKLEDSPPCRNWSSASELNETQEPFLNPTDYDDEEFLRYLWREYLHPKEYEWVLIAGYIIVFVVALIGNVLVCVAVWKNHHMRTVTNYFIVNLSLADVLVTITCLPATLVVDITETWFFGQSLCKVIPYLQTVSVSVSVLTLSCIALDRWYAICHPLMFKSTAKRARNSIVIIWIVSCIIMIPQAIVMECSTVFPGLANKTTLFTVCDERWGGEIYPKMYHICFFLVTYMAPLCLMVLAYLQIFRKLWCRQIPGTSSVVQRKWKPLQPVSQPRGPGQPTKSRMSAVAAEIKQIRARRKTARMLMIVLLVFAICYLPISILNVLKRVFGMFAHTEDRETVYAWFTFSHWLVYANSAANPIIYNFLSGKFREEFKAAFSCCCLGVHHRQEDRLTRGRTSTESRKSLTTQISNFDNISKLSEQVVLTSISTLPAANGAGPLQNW

Row | Structure (SMILES) | OX2 pKi (SPA binding) ([1]; Table 2, [3H]EMPA 2 nM) | OX1 pKi (SPA binding) ([2]; Table 2, [3H]SB-674042 2 nM) | further results
1 | Cc1ccc(-n2nccn2)c(C(=O)N2C3CC(C3)[C@@H](C)C2CNc2nc3cc(F)ccc3s2)n1 (mixture of isomers) [Example 157, cis-5-fluoro-N-({4-methyl-2-[6-methyl-3-(2H-1,2,3-triazol-2-yl)pyridine-2-carbonyl]-2-azabicyclo[3.1.1]heptan-3-yl}methyl)-1,3-benzothiazol-2-amine] | 5.63 | 7.84 | –
2 | Cc1ccc(-n2nccn2)c(C(=O)N2C3CC(C3)[C@@H](C)C2CNc2cnc(C(F)(F)F)cn2)c1 (stereo partly shown) [Example 254] | 5.12 | 8.37 | –
3 | COc1nc(C(=O)N2C(COc3ccc(F)cc3)CC3CC2C3)c(-c2ccccc2)s1 (stereo not shown) [Example 52] | – | – | OX2 pKi (SPA binding) ([1]; Table 1, [3H]EMPA 2 nM): 6.79; OX1 pKi (SPA binding) ([2]; Table 1, [3H]SB-674042 2 nM): 7.71
4 | C[C@@H]1C2CC(C2)N(C(=O)c2cc(Cl)ccc2-n2nccn2)C1CNc1cnc(C2CC2)cn1 (stereo partly shown) [Example 257] | 5.41 | 7.58 | –
5 | Cc1nc(C(=O)N2C3CC(C3)[C@@H](C)[C@@H]2COc2cc3ccccc3cn2)c(-c2ccccc2)s1 (single isomer, unassigned) [Example 88, 3-{[(3S,4S or 3R,4R)-4-methyl-2-(2-methyl-5-phenyl-1,3-thiazole-4-carbonyl)-2-azabicyclo[3.1.1]heptan-3-yl]methoxy}isoquinoline] | – | – | Ki ([1]; Table 1, [3H]EMPA 2 nM): 275 nM; Ki ([2]; Table 1, [3H]SB-674042 2 nM): 12 nM
6 | Cc1nc(C(=O)N2C3CC(C3)[C@H](C)[C@@H]2COc2cc3ccccc3cn2)c(-c2ccccc2)s1 (single isomer, unassigned) [Example 89, 3-{[(3S,4R or 3R,4S)-4-methyl-2-(2-methyl-5-phenyl-1,3-thiazole-4-carbonyl)-2-azabicyclo[3.1.1]heptan-3-yl]methoxy}isoquinoline] | – | – | Ki ([1]; Table 1, [3H]EMPA 2 nM): 1000 nM; Ki ([2]; Table 1, [3H]SB-674042 2 nM): 1.38 nM
7 | Cc1ccc(-n2nccn2)c(C(=O)N2C3CC(C3)[C@H](C)C2COc2ccc(Cl)cc2)n1 (stereo partly drawn) [Example 112, trans-3-[(4-chlorophenoxy)methyl]-4-methyl-2-[6-methyl-3-(2H-1,2,3-triazol-2-yl)pyridine-2-carbonyl]-2-azabicyclo[3.1.1]heptane] | – | – | OX2 pKi (SPA binding) ([1]; Table 1, [3H]EMPA 2 nM): 5.92; OX1 pKi (SPA binding) ([2]; Table 1, [3H]SB-674042 2 nM): 7.83
8 | Cc1ccc(-n2nccn2)c(C(=O)N2C3CC(C3)[C@@H](C)C2CNc2cnc3cc(F)ccc3n2)n1 (mixture of isomers) [Example 198, cis-6-fluoro-N-({4-methyl-2-[6-methyl-3-(2H-1,2,3-triazol-2-yl)pyridine-2-carbonyl]-2-azabicyclo[3.1.1]heptan-3-yl}methyl)quinoxalin-2-amine] | 6.27 | 8.07 | –
9 | Cc1cnn(-c2ccc(C)nc2C(=O)N2C3CC(C3)[C@@H](C)C2COc2ccc(F)cc2)c1 (mixture of isomers) [Example 135, cis-3-[(4-fluorophenoxy)methyl]-4-methyl-2-[6-methyl-3-(4-methyl-1H-pyrazol-1-yl)pyridine-2-carbonyl]-2-azabicyclo[3.1.1]heptane] | 6.39 | 7.78 | –
10 | Cc1ccc(-c2ncc(F)cn2)c(C(=O)N2C3CC(C3)[C@@H](C)C2COc2ccc(F)cc2)n1 (mixture of isomers) [Example 134, cis-3-[(4-fluorophenoxy)methyl]-2-[3-(5-fluropyrimidin-2-yl)-6-methylpyridine-2-carbonyl]-4-methyl-2-azabicyclo[3.1.1]heptane] | 7.03 | 7.85 | –
11 | Cc1cnc(-n2nccn2)c(C(=O)N2C3CC(C3)[C@@H](C)C2COc2ccc(F)cc2)n1 (mixture of isomers) [Example 145, cis-3-[(4-fluorophenoxy)methyl]-4-methyl-2-[6-methyl-3-(2H-1,2,3-triazol-2-yl)pyrazine-2-carbonyl]-2-azabicyclo[3.1.1]heptane] | 5.62 | 7.03 | –
12 | C[C@@H]1C2CC(C2)N(C(=O)c2cc(Cl)ccc2-n2nccn2)C1CNc1nc2ccc(F)cc2s1 (single isomer, unassigned) [Example 173, N-({(3R,4S) or (3S,4R)2-[5-chloro-2-(2H-1,2,3-triazol-2-yl)benzoyl]-4-methyl-2-azabicyclo[3.1.1]heptan-3-yl}methyl)-6-fluoro-1,3-benzothiazol-2-amine] | 6.53 | 9.36 | –
13 | Cc1ccc(-n2nccn2)c(C(=O)N2C3CC(C3)[C@@H](C)C2COc2ccc(F)cn2)n1 (mixture of isomers) [Example 130, cis-3-{[(5-fluoropyridin-2-yl)oxy]methyl}-4-methyl-2-[6-methyl-3-(2H-1,2,3-triazol-2-yl)pyridine-2-carbonyl]-2-azabicyclo[3.1.1]heptane] | 6.08 | 6.9 | –
14 | Cc1cn(-c2ccc(C)nc2C(=O)N2C3CC(C3)[C@@H](C)C2COc2ccc(F)cc2)nn1 (mixture of isomers) [Example 146, cis-3-[(4-fluorophenoxy)methyl]-4-methyl-2-[6-methyl-3-(4-methyl-1H-1,2,3-triazol-1-yl)pyridine-2-carbonyl]-2-azabicyclo[3.1.1]heptane] | 5.53 | 6.88 | –
15 | C[C@@H]1C2CC(C2)N(C(=O)c2ccc(F)cc2-n2nccn2)C1CNc1cnc(C(F)(F)F)cn1 (stereo partly shown) [Example 252] | 4.95 | 7.19 | –
16 | Cc1ccc(-c2ncccn2)c(C(=O)N2C3CC(C3)[C@H](C)[C@@H]2COc2ccc(F)cc2)n1 (single isomer, unassigned) [Example 91, (3S,4R or 3R,4S)-3-(4-fluorophenoxymethyl)-4-methyl-2-[6-methyl-3-(pyrimidin-2-yl)pyridine-2-carbonyl]-2-azabicyclo[3.1.1]heptane] | – | – | Ki ([1]; Table 1, [3H]EMPA 2 nM): 35.5 nM; Ki ([2]; Table 1, [3H]SB-674042 2 nM): 3.47 nM
17 | Cc1nc(C(=O)N2[C@H]3C[C@H](C3)[C@@H](C)[C@H]2COc2ccc(F)cc2)c(-c2ccccn2)s1 (racemic) [Example 132, cis-3-[(4-fluorophenoxy)methyl]-4-methyl-2-[2-methyl-5-(pyridin-2-yl)-1,3-thiazole-4-carbonyl]-2-azabicyclo[3.1.1]heptane] | 6.72 | 7.97 | –
18 | Cc1ccc(-n2nccn2)c(C(=O)N2C3CC(C3)[C@@H](C)C2CNc2nc3ccc(F)cc3s2)n1 (single isomer, unassigned) [Example 154, 6-fluoro-N-{[(3R,4S) or (3S,4R)-4-methyl-2-[6-methyl-3-(2H-1,2,3-triazol-2-yl)pyridine-2-carbonyl]-2-azabicyclo[3.1.1]heptan-3-yl]methyl}-1,3-benzothiazol-2-amine] | 6.23 | 9.06 | –
19 | Cc1nc(C(=O)N2C3CC(C3)[C@H](C)C2COc2ccc(F)cn2)c(-c2ccccn2)s1 (mixture of isomers) [Example 117, trans-3-{[(5-fluoropyridin-2-yl)oxy]methyl}-4-methyl-2-[2-methyl-5-(pyridin-2-yl)-1,3-thiazole-4-carbonyl]-2-azabicyclo[3.1.1]heptane] | 5.47 | 7.13 | –
20 | Cc1nc(C(=O)N2C(COc3ccc(C(F)(F)F)cn3)CC3CC2C3)c(-c2ccccc2)s1 (stereo not shown) [Example 55] | – | – | OX2 pKi (SPA binding) ([1]; Table 1, [3H]EMPA 2 nM): 6.49; OX1 pKi (SPA binding) ([2]; Table 1, [3H]SB-674042 2 nM): 7.38
21 | Cc1ccc(-c2ncccn2)c(C(=O)N2C3CC(C3)[C@@H](C)C2CNc2cnc(C(F)(F)F)cn2)n1 (single isomer, unassigned) [Example 249, N-{[(3S,4R) or (3R,4S)-4-methyl-2-[6-methyl-3-(pyrimidin-2-yl)pyridine-2-carbonyl]-2-azabicyclo[3.1.1]heptan-3-yl]methyl}-5-(trifluoromethyl)pyrazin-2-amine] | – | 5.12 | Ki ([1]; Table 2, [3H]EMPA 2 nM): > 31600 nM
22 | C[C@@H]1C2CC(C2)N(C(=O)c2cc(C#N)ccc2-n2nccn2)C1CNc1nc2ccc(F)cc2s1 (stereo partly drawn) [Example 175, cis-3-(3-{[(6-fluoro-1,3-benzothiazol-2-yl)amino]methyl}-4-methyl-2-azabicyclo[3.1.1]heptane-2-carbonyl)-4-(2H-1,2,3-triazol-2-yl)benzonitrile] | 6.02 | 8.41 | –
23 | Cc1ccc(-n2nccn2)c(C(=O)N2C3CC(C3)[C@@H](C)C2COc2ccc(C(F)(F)F)cn2)n1 (mixture of isomers) [Example 129, cis-4-methyl-2-[6-methyl-3-(2H-1,2,3-triazol-2-yl)pyridine-2-carbonyl]-3-({[5-(trifluoromethyl)pyridin-2-yl]oxy}methyl)-2-azabicyclo[3.1.1]heptane] | 5.14 | 6.81 | –
24 | C[C@@H]1C2CC(C2)N(C(=O)c2cc(Cl)ccc2-n2nccn2)C1CNc1nc2cccnc2o1 (single isomer, unassigned) [Example 244, N-{[(3R,4S) or (3S,4R)-2-[5-chloro-2-(2H-1,2,3-triazol-2-yl)benzoyl]-4-methyl-2-azabicyclo[3.1.1]heptan-3-yl]methyl}-[1,3]oxazolo[5,4-b]pyridin-2-amine] | 5.18 | 8.25 | –
25 | Cc1ccc(-n2nccn2)c(C(=O)N2C3CC(C3)[C@@H](C)C2CNc2ncc(C(F)(F)F)cn2)n1 (mixture of isomers) [Example 193, cis-N-({4-methyl-2-[6-methyl-3-(2H-1,2,3-triazol-2-yl)pyridine-2-carbonyl]-2-azabicyclo[3.1.1]heptan-3-yl}methyl)-5-(trifluoromethyl)pyrimidin-2-amine] | 4.64 | 7.57 | –
26 | Cc1ccc(-n2nccn2)c(C(=O)N2C3CC(C3)[C@@H](C)C2CNc2nc3ccccc3s2)n1 (stereo partly drawn) [Example 178, cis-N-({4-methyl-2-[6-methyl-3-(2H-1,2,3-triazol-2-yl)pyridine-2-carbonyl]-2-azabicyclo[3.1.1]heptan-3-yl}methyl)-1,3-benzothiazol-2-amine] | 5.63 | 8.52 | –
